Columns and labels:
mTORC2 [1] = target: T1, mTORC2 (Homo sapiens, UniProt P42345); experiment: mTORC2 inhibitory activity in HeLa cells (Akt Ser473 phosphorylation, Western blot); format: cell-based; conditions: for selective inhibition of mTORC2: 40 μM, versus mTORC1; for selective inhibition of mTORC2 / remaining activity at 40 µM: 9 hours; for remaining activity at 40 µM: read-out: pSer473-AKT/AKT (% control); for inhibition at 40 µM: HeLa, 9 h, read-out: reduction in Akt Ser473 phosphorylation compared to the control group
T1 construct: the following experiments were conducted in HeLa cells; endogenous in cells; host or cells: HeLa
Method: (§1) Specifically, HeLa cells were cultured in a 5% CO2 incubator at 37° C. in DMEM (Dulbecco's Modified Eagles Media) medium supplemented with 10% FBS, penicillin (100 unit/ml), and streptomycin (100 μg/ml). Cultivation was started by seeding 4×10^5 cells in a 100 mm culture dish, and subculture was carried out every 3 days.
(§2) Human cell line HeLa cells were seeded in a 60 mm culture dish at a density of 2×10^5 cells/plate, and cultured for 24 hours. Then, HeLa cells were treated with 70 types of compounds at a concentration of 40 μM each for 9 hours. HeLa cells were washed twice with cold 1×PBS, and then lysed with 100 μl of RIPA buffer (50 mM Tris-HCl (pH7.4), 0.25% sodium deoxycholate, 50 mM NaF, 1% NP-40, 150 mM NaCl, 1 mM β-glycerophosphate, 1 mM PMSF, 1 mM NaVO4, 1 μg/ml leupeptin, 1 μg/ml pepstatin A, 10 nM calyculin A, 10 μg/ml aprotinin, 1 mM EDTA) to hemolyze the cell membrane. Then, the lysates were centrifuged at 12,000 rpm at 4° C. for 10 minutes to collect the supernatant, which is cell lysate. Protein concentration in the cell lysate was determined using the BCA protein assay kit (Thermo Fisher Scientific), and equal amounts of protein were separated by SDS-PAGE.
(§3) Western blot analysis was performed by the following method. […] After washing the membrane three times for 5 minutes each with TBS-T buffer, it was incubated with primary antibodies diluted in TBS-T buffer containing 5% skim milk or 5% BSA overnight at 4° C. Subsequently, the membrane was washed three times for 5 minutes each with TBS-T buffer, and then incubated with secondary antibodies diluted in TBS-T buffer containing 5% skim milk at room temperature for 30 minutes. The membrane was washed five times for 5 minutes each with TBS-T buffer containing 5% skim milk, and then the protein bands bound by the secondary antibody were detected using a chemiluminescence method. The primary antibodies used were Akt (cell signaling, #4691), pAkt(S473) (Cell signaling, #4060), p70S6K (Cell signaling, #S6198), pp70S6K(T389) (cell signaling, #9205S), LC3-II (MBL, #PM036), and the secondary antibodies used were HRP conjugated anti-rabbit (Jackson immunoresearch laboratory, #711-035-152) and HRP conjugated anti-mouse IgG (Jackson immunoresearch laboratory, #515-035-072).
As an mTORC2 activity indicator in HeLa cells, the level of Akt Ser473 phosphorylation was selected as a marker, and the phosphor-Akt (Ser473) signal obtained from Western blot analysis was normalized to the pan-Akt signal, and the data were expressed as a percentage relative to the control group treated with DMSO only, which is a vehicle.

mTORC1 [2] = target: T2, mTORC1 (Homo sapiens, UniProt P42345); experiment: mTORC1 inhibitory activity in HeLa cells (p70S6K Thr389 phosphorylation, Western blot); format: cell-based; conditions: for remaining activity at 40 µM: read-out: pThr389-S6K/S6K (% control)
T2 construct: the following experiments were conducted in HeLa cells; endogenous in cells; host or cells: HeLa
Method: as §1, §2, §3
As an mTORC1 activity indicator in HeLa cells, the level of p70S6K Thr389 phosphorylation was selected as a marker, and the level of phosphor-p70S6K (Thr389) signal measured by Western blot analysis was normalized to a level of pan-p70S6K signal, and then expressed as a percentage of the control group treated with only DMSO, which is a vehicle.

LC3-II [3] = experiment: LC3-II formation as indicator of autophagy in HeLa cells (Western blot); format: cell-based, human; conditions: 9 hours; for activity at 40 µM: Homo sapiens, read-out: LC3-II (% control)
Method: as §1, §2, §3
LC3-II formation was selected as an indicator of autophagy in HeLa cells, and the LC3-II signal obtained from Western blot analysis was normalized to the pan-Akt signal and the data were expressed as a percentage relative to the control group treated with DMSO only, which is a vehicle.

[4] = target: T3, mTOR(CD) protein and mLST8 protein (Homo sapiens, UniProt P42345+Q9BVC4); experiment: mTOR(CD)-mLST8 binding assay (co-precipitation, Western blot); conditions: 0.04 to 40 μM
T3 construct: mTOR C-terminal domain (mTOR(CD), a.a. 2179-2549); made in house; host or cells: E. coli (mTOR(CD)); insect Sf9 cells (mLST8, used as a crude extract)
Method: mLST8 binds to the mTOR C-terminal domain (mTOR(CD), a.a. 2179-2549). After binding to mTOR, mLST8 interacts with mSin1 and Rictor to complete the formation of the mTORC2 complex, serving as a scaffold. In order to evaluate the inhibitory activity of the compounds synthesized in Examples 1 to 70 on the binding between mLST8 protein and mTOR(CD) protein, the following mTOR(CD)-mLST8 binding assay was performed. Four types of compounds: HN2210, HN2213, HN2221 and HN2313 were used as the experimental target compounds.
Specifically, mTOR(CD) protein was overexpressed in E. coli, labeled with biotin, and then partially purified. mLST8 protein was overexpressed in insect Sf9 cells to obtain mLST8 extract. mTOR(CD)-biotin and mLST8 extract were incubated at 4° C. to induce binding between mTOR(CD)-biotin and mLST8 proteins, and then the mTOR(CD)-biotin and mLST8 complex were co-precipitated using avidin-agarose beads. The relative amounts of precipitated mTOR(CD)-biotin and mLST8 proteins were measured by Western blot analysis, as shown in FIG. 4. Four types of compounds were added during the incubation process of the mTOR(CD)-biotin and mLST8 extract.

mTORC2 [5] = experiment: mTORC2 inhibitory activity in primary cultured cerebral neurons (Akt Ser473 phosphorylation); format: cell-based, SD mice; conditions: for effect on Akt Ser473 phosphorylation / decrease in AKT Ser473 phosphorylation at 24 hours: 500 nM or 100 nM; for effect on Akt Ser473 phosphorylation / pSer473-AKT/AKT (% control): 24 hours
Method: Specifically, primary neural cells were cultured from the cerebral cortex of E16 embryos of SD mice with a gestational age 16-day (Orient Bio). The extracted brain was separated into the left and right hemispheres, the meninges were removed, and the brains were treated with trypsin in Ca^2+/Mg^2+-free HBSS solution.
The time-dependent changes in Akt Ser473 phosphorylation, Akt Thr308 phosphorylation, and LC3-II levels were measured by Western blot analysis.

mTORC1 [6] = experiment: mTORC1 inhibitory activity in primary cultured cerebral neurons (S6K Thr389 phosphorylation); format: cell-based, SD mice; conditions: for effect on S6K Thr389 phosphorylation: 500 nM or 100 nM, time course to 24 hours (HN2304: from 6 to 24 hours); for pThr389-S6K/S6K (% control): 24 hours
LC3-II [7] = experiment: LC3-II levels in primary cultured cerebral neurons; format: cell-based, SD mice; conditions: for effect on LC3-II: 500 nM or 100 nM, time course to 24 hours; for LC3-II (% control): 24 hours
Method: Specifically, primary neural cells were cultured from the cerebral cortex of E16 embryos of SD […] with a gestational age 16-day (Orient Bio). The extracted brain was separated into the left and right hemispheres, the meninges were removed, and the brains were treated with trypsin in Ca^2+/Mg^2+-free HBSS solution. […] The cells were seeded at a density of 19,000 cells/cm^2 onto 35 mm culture dishes coated with 50 μg/ml poly-D-Lysine (Sigma, P0899) and 1 μg/ml laminin (Invitrogen, 23017-015), and then maintained in neurobasal complete media supplemented with B27 (Gibco, 17504-044) in a 5% CO2 incubator.
Therefore, the evaluation of mTORC2 inhibitory activity in primary cultured cerebral cells was conducted using the same method as in Experimental Example 1, except that each compound was treated at concentrations of 500 nM or 100 nM for 24 hours. The time-dependent changes in Akt Ser473 phosphorylation, Akt Thr308 phosphorylation, and LC3-II levels were measured by Western blot analysis.

SMILES: O=C1c2cc(F)c(NC3CCCCC3)cc2COc2cc3c(cc21)OCO3 [HN2221, 8-(cyclohexylamino)-9-fluoro[2]benzoxepino[3,4-f]-1,3-benzodioxol-11(6H)-one]
- selective inhibition of mTORC2 (mTORC2 [1]): selectively inhibit mTORC2
- remaining activity at 40 µM (mTORC2 [1]): 77%
- inhibition at 40 µM (mTORC2 [1]): > 20%
- remaining activity at 40 µM (mTORC1 [2]; 9 hours): 93%
- activity at 40 µM (LC3-II [3]): 119%
- inhibition of the binding between mTOR(CD) and mLST8 proteins [4]: did not significantly inhibit

SMILES: COc1cc2c(cc1OC)C(=O)c1cc(Br)ccc1CS2 [HN2304, 9-bromo-2,3-dimethoxydibenzo[b,e]thiepin-11(6H)-one]
- selective inhibition of mTORC2 (mTORC2 [1]): selectively inhibit mTORC2
- remaining activity at 40 µM (mTORC2 [1]): 44%
- inhibition at 40 µM (mTORC2 [1]): > 20%
- remaining activity at 40 µM (mTORC1 [2]; 9 hours): 204%
- selectivity for mTORC2 over mTORC1 (mTORC2 [5]): selective mTORC2 inhibitors
- effect on Akt Ser473 phosphorylation (mTORC2 [5]): reduce Akt Ser473 phosphorylation
- decrease in AKT Ser473 phosphorylation at 24 hours (mTORC2 [5]): 17%
- pSer473-AKT/AKT (% control) (mTORC2 [5]; 500 nM): 82 % control
- AKT Ser473 phosphorylation from 1 to 12 hours (mTORC2 [5]): significantly increased
- effect on S6K Thr389 phosphorylation (mTORC1 [6]): markedly increased
- pThr389-S6K/S6K (% control) (mTORC1 [6]; 500 nM): 504 % control
- effect on LC3-II (LC3-II [7]): not affected
- LC3-II (% control) (LC3-II [7]; 500 nM): 82 % control

SMILES: COc1cc2c(cc1OC)C(=O)c1cc(-c3ccoc3)ccc1CS2 [HN2308, 9-(3-furanyl)-2,3-dimethoxydibenzo[b,e]thiepin-11(6H)-one]
- selective inhibition of mTORC2 (mTORC2 [1]): selectively inhibit mTORC2
- remaining activity at 40 µM (mTORC2 [1]): 44%
- effect on S6K Thr389 phosphorylation (mTORC1 [2]; 40 μM, 9 hours): no effect
- remaining activity at 40 µM (mTORC1 [2]; 9 hours): 95%
- selectivity for mTORC2 over mTORC1 (mTORC2 [5]): selective mTORC2 inhibitors
- pSer473-AKT/AKT (% control) (mTORC2 [5]; 100 nM): 46 % control
- effect on Akt Ser473 phosphorylation (mTORC2 [5]): reduce Akt Ser473 phosphorylation
- decrease in AKT Ser473 phosphorylation at 24 hours (mTORC2 [5]): 54%
- AKT Ser473 phosphorylation from 1 to 12 hours (mTORC2 [5]): increased AKT Ser473 phosphorylation significantly
- pThr389-S6K/S6K (% control) (mTORC1 [6]; 100 nM): 104 % control
- effect on S6K Thr389 phosphorylation (mTORC1 [6]): no effect
- LC3-II (% control) (LC3-II [7]; 100 nM): 119 % control
- effect on LC3-II (LC3-II [7]): no effect

SMILES: COc1ccccc1CNc1cc2c(cc1F)C(=O)c1cc3c(cc1OC2)OCO3 [HN2323, 9-fluoro-8-((2-methoxybenzyl)amino)-[1,3]dioxolo[4′,5′:4,5]benzo[1,2-b]benzo[e]oxepin-11(6H)-one]
- remaining activity at 40 µM (mTORC2 [1]): 72%
- inhibition at 40 µM (mTORC2 [1]): > 20%
- remaining activity at 40 µM (mTORC1 [2]; 9 hours): 60%
- inhibition at 40 µM (mTORC1 [2]; HeLa, 9 h, read-out: reduction in p70S6K Thr389 phosphorylation compared to the control group): 40%
- increase in LC3-II (LC3-II [3]; 40 μM): 80%
- activity at 40 µM (LC3-II [3]): 180%
- selectivity for mTORC2 over mTORC1 (mTORC2 [5]): selective mTORC2 inhibitors
- pSer473-AKT/AKT (% control) (mTORC2 [5]; 100 nM): 48 % control
- effect on Akt Ser473 phosphorylation (mTORC2 [5]): reduce Akt Ser473 phosphorylation
- decrease in AKT Ser473 phosphorylation at 24 hours (mTORC2 [5]): 52%
- AKT Ser473 phosphorylation from 1 to 12 hours (mTORC2 [5]): increased AKT Ser473 phosphorylation significantly
- pThr389-S6K/S6K (% control) (mTORC1 [6]; 100 nM): 128 % control
- effect on S6K Thr389 phosphorylation (mTORC1 [6]): no effect
- LC3-II (% control) (LC3-II [7]; 100 nM): 135 % control
- effect on LC3-II (LC3-II [7]): no effect

Source: patent US20260265267A1, “NOVEL COMPOUNDS WITH MTORC2-INHIBITORY ACTIVITY AND USES THEREOF” (Aliad Biopharma, priority 2023, published 2026)
